The source of these data is publication PMC12040169 (PLOS Biology, 2025).

As a reminder, the viability is a read-out of living cells in per cent, often relative to untreated cells.

This data set in a line: in vitro. The settings on record: human, hela cells, % viability.
As to `Cn1c(SCC(=O)Nc2ccc(Oc3ccc(Cl)cc3)cc2)nnc1-c1ccncc1` [CBK269654], the viability at 28.5 h, 10 µM was found to be 95.6%. In the case of `O=C(Oc1ccccc1)c1cc(S(=O)(=O)N2CCOCC2)c(Cl)cc1Cl` [CBK269656], the viability at 28.5 h, 10 µM was determined as 83.5%. Consider `O=C(NCc1cccs1)c1cc(S(=O)(=O)N2CCOCC2)c(Cl)cc1Cl` [CBK269657], for which the viability at 28.5 h, 10 µM stood at 97.3%. As to `Cc1nnc(SCC(=O)NCc2c(C)c(Cl)cc(C(C)C)c2O)s1` [CBK269662], the viability at 28.5 h, 10 µM stood at 86.1%.

Turning to `COc1ccc(C(=O)Nc2ccccc2O)cc1S(=O)(=O)N1CCCCC1` [CBK269665], the viability at 28.5 h, 10 µM came out at 92.6%. For `O=C(COc1ccc(CCO)cc1)Nc1ccccc1-c1ccccc1` [CBK269666], the viability at 28.5 h, 10 µM came to 80.9%. In the case of `O=C(CN1C(=O)COc2ccc(Cl)cc21)Nc1cccc(C(=O)O)c1` [CBK269667], the viability at 28.5 h, 10 µM was 93.1%. In the case of `O=C(CSc1ccc(Cl)cc1)N1CCN(c2ccc([N+](=O)[O-])c(N3CCOCC3)c2)CC1` [CBK269670], the viability at 28.5 h, 10 µM amounted to 85.3%. The same measure for `C=CCc1cc(C)cc(C)c1OCCN1CCN(C)CC1` [CBK269672C]: 101%; for `Cc1ccc(-n2c(SCC(N)=O)nnc2-c2ccccc2O)c(C)c1` [CBK269673]: 89.6%. Take `O=C(NCc1cccnc1)c1ccc2c(c1)C(=O)N(Cc1ccco1)C2=O` [CBK269675]: the viability at 28.5 h, 10 µM amounted to 88.6%.

With `CCOc1ccc(NC(=O)C(C)O)c(NC(=O)c2ccccc2Cl)c1` (stereo not drawn) [CBK269678], the viability at 28.5 h, 10 µM amounted to 92.7%. In the case of `COc1cc(CNc2cc(C(=O)O)ccc2C)cc(Br)c1OC` [CBK269679], the viability at 28.5 h, 10 µM stood at 95.3%. `O=C(CN1C(=O)COc2ccccc21)NCc1ccco1` [CBK269682]: the viability at 28.5 h, 10 µM was 94.8%. Turning to `O=C(CSc1ncn(-c2ccccc2)n1)Nc1c(Cl)cccc1Cl` [CBK269683], the viability at 28.5 h, 10 µM came to 94.7%. `O=C(CSc1nnc(-c2ccccc2)c(-c2ccccc2)n1)Nc1ccc(N2CCOCC2)cc1` [CBK269684]: the viability at 28.5 h, 10 µM was determined as 89.7%. In the case of `CCC(C(=O)Nc1ccc(OC(C)=O)cc1C(=O)O)c1ccccc1` (stereo not drawn) [CBK269685], the viability at 28.5 h, 10 µM stood at 94.5%. In the case of `COc1ccc(OCC(=O)Nc2ccc(CN3CCOCC3)cc2)cc1` [CBK269686] it was 105%; in that of `CC1CN(CCOc2ccccc2C=O)CC(C)O1` (stereo not drawn) [CBK269687C], 101%. `Cc1cc(OC(C)C(=O)Nn2cnnc2)ccc1Cl` (stereo not drawn) [CBK269690]: the viability at 28.5 h, 10 µM came to 98.1%. As to `O=C(NCC1CCCO1)c1cc(S(=O)(=O)N2CCOCC2)c(Cl)cc1Cl` (stereo not drawn) [CBK269691], the viability at 28.5 h, 10 µM came out at 90.3%. With `Nc1nc(CSc2nnc(-c3ccco3)n2-c2ccccc2)cs1` [CBK269693], the viability at 28.5 h, 10 µM was determined as 97.9%. The same measure for `Cc1nnc(Sc2ccc([N+](=O)[O-])cc2Cl)n1Cc1ccccc1` [CBK269694]: 102%; for `CCn1c(SCC(=O)c2ccc(F)cc2)nnc1C(C)Oc1ccccc1` (stereo not drawn) [CBK269695]: 108%; for `Cc1cc(OC(C)C(=O)Nc2ccccc2C(=O)N2CCCCC2)ccc1Cl` (stereo not drawn) [CBK269696]: 104%. For the compound `Cc1cc(C)c(C)c(S(=O)(=O)Nc2cc(S(=O)(=O)N3CCOCC3)ccc2F)c1C` [CBK269698], the viability at 28.5 h, 10 µM amounted to 61.9%.

Take `O=C(c1cccc(-c2cc3ccccc3oc2=O)c1)N1CCN(c2ccc([N+](=O)[O-])cc2Cl)CC1` [CBK269704]: the viability at 28.5 h, 10 µM worked out at 101%.

In the case of `Cc1ccc(-c2nnc(SCc3cccc4nsnc34)n2C)cc1` [CBK269706], the viability at 28.5 h, 10 µM stood at 92.7%. As to `c1ccc(-c2nnc(COc3ccc(-c4cnc5ccccc5n4)cc3)o2)cc1` [CBK269707], the viability at 28.5 h, 10 µM turned out to be 90.4%. In the case of `Cc1cc(OC(C)C(=O)Nc2ccccc2C(=O)N2CCCC2)ccc1Cl` (stereo not drawn) [CBK269710], the viability at 28.5 h, 10 µM was found to be 94.3%. `O=C(CSc1nc2ccccc2[nH]1)Nc1ccc(OC(F)(F)F)cc1` [CBK269711]: the viability at 28.5 h, 10 µM stood at 104%. Regarding `COc1cc(C(C)=O)ccc1OCCCCN1CCOCC1` [CBK269713C], the viability at 28.5 h, 10 µM is 98.2%. As to `C=CCOc1ccccc1OCCCN1CCN(C)CC1` [CBK269714C], the viability at 28.5 h, 10 µM is 95.6%. The same measure for `Cc1cccc(C)c1OCc1nnc(SCC(=O)c2ccc(F)cc2)n1C` [CBK269715]: 91.2%. In the case of `CC(C)(C)C(=O)NC(=S)Nc1ccc(Cc2ccncc2)cc1` [CBK269717] it was 91.5%. On to `Cc1ccc(C)c(OCCNCc2ccco2)c1Cl` [CBK269718C], for which the viability at 28.5 h, 10 µM stood at 98.3%. The same measure for `Cc1ccccc1NC(=O)Cc1nnc(SCC(=O)c2ccccc2)n1C` [CBK269719]: 101%. `Clc1ccc(Cl)c(-c2ccc(CNCc3cccnc3)o2)c1` [CBK269720C]: the viability at 28.5 h, 10 µM stood at 103%. On to `O=C(Nc1ccc(NC(=O)c2cc(O)nc3ccccc23)cc1)c1ccccc1` [CBK269722], for which the viability at 28.5 h, 10 µM stood at 106%.

Turning to `Cc1ccc(S(=O)(=O)N2CCOCC2)cc1C(=O)Oc1cccc2cccnc12` [CBK269726], the viability at 28.5 h, 10 µM came out at 98%. For `Cc1cccc(OCC(=O)Nc2sc3c(c2C(N)=O)CCC3)c1C` [CBK269729], the viability at 28.5 h, 10 µM is 94.8%.

As to `Cc1cc(OC(C)C(=O)Nc2nnc[nH]2)ccc1Cl` (stereo not drawn) [CBK269731], the viability at 28.5 h, 10 µM stood at 87%.

With `Cn1c(SCc2ccc([N+](=O)[O-])cc2)nnc1C(O)c1ccccc1` (stereo not drawn) [CBK269735], the viability at 28.5 h, 10 µM is 88.6%. Turning to `COc1ccc(C(=O)Nc2ccc(CC(=O)O)cc2)cc1` [CBK269736], the viability at 28.5 h, 10 µM was determined as 95%. As to `Cc1cccc(C)c1OCc1nnc(SCc2ccc([N+](=O)[O-])cc2)n1C` [CBK269737], the viability at 28.5 h, 10 µM came to 105%. On to `Cc1nnc(SCc2nnc(-c3ccccc3)o2)n1Cc1ccccc1` [CBK269743], for which the viability at 28.5 h, 10 µM amounted to 92.2%.

In the case of `CS(=O)(=O)Nc1ccccc1C(=O)NCCCN1CCOCC1` [CBK269745], the viability at 28.5 h, 10 µM is 112%. In the case of `O=C(Nc1cccc(O)c1)c1ccc(NC(=O)C2CCCO2)cc1` (stereo not drawn) [CBK269746], the viability at 28.5 h, 10 µM amounted to 91.6%. Turning to `CSc1ccccc1C(=O)NCCCn1ccnc1` [CBK269749], the viability at 28.5 h, 10 µM was determined as 85.3%. The same measure for `COc1cc(CN2CCNC(=O)C2CC(=O)O)cc(OC)c1` (stereo not drawn) [CBK269752]: 105%; for `O=C(NCc1cccnc1)c1ccccc1NS(=O)(=O)c1ccc(F)cc1` [CBK269754]: 70.8%. Regarding `O=C(O)Cn1nnc(-c2ccc(OCc3ccccc3)cc2)n1` [CBK269755], the viability at 28.5 h, 10 µM was 85.1%. In the case of `CSc1ccccc1C(=O)NCCN(C)C` [CBK269757] it was 90.9%; in that of `N#Cc1ccc(NC(=O)c2ccc(-n3cnnc3)cc2Cl)cc1` [CBK269758], 87.2%. Turning to `Cn1c(=O)c2[nH]c(N3CCN(c4cccc(O)c4)CC3)nc2n(C)c1=O` [CBK269760], the viability at 28.5 h, 10 µM came to 104%. Regarding `COc1ccc(Cl)cc1S(=O)(=O)N1CCCC(C(=O)NCc2ccccn2)C1` (stereo not drawn) [CBK269761], the viability at 28.5 h, 10 µM worked out at 96.7%. In the case of `COCCCn1c(C)c(C)n2c3c(=O)n(CCN4CCCCC4)c(=O)n(C)c3nc12` [CBK269762] it was 102%; in that of `COc1ccc(C(=O)Nc2ccccc2N2CCN(C)CC2)c(OC)c1` [CBK269763], 90.4%. For the compound `CCN(CC)CCn1c2ccc(C)cc2c2nc(C)sc21` [CBK269764C], the viability at 28.5 h, 10 µM stood at 99.7%. Consider `CCn1c(SCC(=O)Nc2ccc(N3CCOCC3)cc2)nnc1-c1ccncc1` [CBK269765], for which the viability at 28.5 h, 10 µM is 89.7%. As to `COc1ccc(OC)c(NC(=O)C(C)Oc2ccccc2OC)c1` (stereo not drawn) [CBK269766], the viability at 28.5 h, 10 µM worked out at 85.3%. As for `COc1cc(CNc2nc[nH]n2)ccc1OCc1ccc(C)cc1` [CBK269768], the viability at 28.5 h, 10 µM was found to be 113%. `O=C(Nc1ccccc1C(=O)O)c1cccc(-n2cnnc2)c1` [CBK269769]: the viability at 28.5 h, 10 µM amounted to 85.4%. For the compound `C=CCOc1ccc(-c2nnn(CC(=O)O)n2)cc1` [CBK269772], the viability at 28.5 h, 10 µM was determined as 87.8%. Take `Cc1cccc(-c2nc3ccc(NC(=O)CCC(=O)O)cc3o2)c1` [CBK269773]: the viability at 28.5 h, 10 µM was determined as 95.1%. As to `CC(=O)N1CCN(c2ccccc2NC(=O)c2ccc(OCc3ccccc3)cc2)CC1` [CBK269775], the viability at 28.5 h, 10 µM was 103%. In the case of `C=CCn1c(C)c(C)n2c3c(=O)n(CCN4CCOCC4)c(=O)n(C)c3nc12` [CBK269778] it was 90.8%. As to `CS(=O)(=O)Nc1ccc(C(=O)NCCN2CCOCC2)cc1` [CBK269781], the viability at 28.5 h, 10 µM amounted to 93.2%. Regarding `COc1ccc(OCc2nc(-c3cccs3)no2)cc1` [CBK269782], the viability at 28.5 h, 10 µM was 91.7%.

For the compound `COc1ccc(-c2noc(CNC(=O)Nc3ccc(F)cc3)n2)cc1OC` [CBK269784], the viability at 28.5 h, 10 µM worked out at 97.2%.

Consider `CN(C)S(=O)(=O)N1CCN(c2ccnc3cc(Cl)ccc23)CC1` [CBK269785], for which the viability at 28.5 h, 10 µM was 99.2%.

Regarding `CCCOc1ccc(C(=O)NCc2ccccn2)cc1` [CBK269789], the viability at 28.5 h, 10 µM is 93.9%. As to `Cc1ccccc1CSCC(=O)Nc1c[nH]c(=O)[nH]c1=O` [CBK269790], the viability at 28.5 h, 10 µM amounted to 86.8%. On to `CCOC(=O)CC1C(=O)NCCN1C/C=C\c1ccccc1OC` (stereo not drawn) [CBK269791], for which the viability at 28.5 h, 10 µM amounted to 94.3%. In the case of `COc1ccc(S(=O)(=O)NCCCN2CCOCC2)c(Cl)c1Cl` [CBK269792] it was 95.3%; in that of `O=C1c2ccccc2C(=O)N1CCc1nn2c(-c3cccnc3)nnc2s1` [CBK269793], 97.9%.

For the compound `Cn1c(=O)c2[nH]c(NCCc3ccc(Cl)cc3)nc2n(C)c1=O` [CBK269794], the viability at 28.5 h, 10 µM was 92%. Regarding `COc1cccc(CNCC2CCCO2)c1OCc1ccccc1` (stereo not drawn) [CBK269798C], the viability at 28.5 h, 10 µM stood at 105%.

As for `Cc1ccc(S(=O)(=O)CC(=O)Nc2ncccn2)cc1` [CBK269800], the viability at 28.5 h, 10 µM came to 97.3%.

In the case of `CS(=O)(=O)N1CCC(C(=O)NC(c2ccccc2)c2ccccc2)CC1` [CBK269801], the viability at 28.5 h, 10 µM turned out to be 77.8%. In the case of `Cc1ccc(OC(C)C(=O)Nc2ccccc2C(=O)N2CCN(C)CC2)cc1` (stereo not drawn) [CBK269802] it was 88.6%.
